Assays:
in vitro [1] = settings: human, plasma
Description: Fraction unbound in human plasma

[2] = rat, in vivo, iv, 1 mg/kg
in vitro [3] = settings: dog, MDCK, pH 7.4
Description: Apparent permeability in dog MDCKII-LE cells at pH 7.4

in vitro [4] = settings: rat, plasma
Description: Fraction unbound in rat plasma

[5] = human, in vivo, iv
Description: Hepatic clearance in human administered through iv dosing

[6] = cynomolgus monkey, in vivo, iv, 1 mg/kg
in vitro [7] = settings: human, cryopreserved hepatocytes
in vitro [8] = settings: cynomolgus monkey, plasma
Description: Fraction unbound in cynomolgus monkey plasma

clinical = settings: human, blood and plasma, iv
Description: Ratio of drug level in human blood to plasma administered through iv dosing by LC-MS/MS analysis

physchem [9] = assay: physchem
in vivo = settings: cynomolgus monkey, blood and plasma, iv
Description: Ratio of drug level in cynomolgus monkey blood to plasma administered through iv dosing by LC-MS/MS analysis

physchem [10] = settings: buffer, pH 7.4
physchem [11] = assay: physchem; remark: listed apart in the source

Row | fraction unbound (in vitro [1]) | CLH [2] | Papp (in vitro [3]) | fraction unbound (in vitro [4]) | CLH [5] | CLH [6] | CLint scaled at 2 h, 1 µM (in vitro [7]) | fraction unbound (in vitro [8]) | blood plasma ratio (clinical) | pKa at 0.3 h (physchem [9]) | blood plasma ratio (in vivo) | logD (physchem [10]) | pKa at 0.3 h (physchem [11]) | SMILES
1 | 0.004 | – | 6 ×10⁻⁶ cm/s | – | 0.57 mL/min/kg | 1.3 mL/min/kg | – | 0.004 | – | – | – | – | 2.3 | CC(C)(O)c1ccccc1CC[C@@H](SCC1(CC(=O)O)CC1)c1cccc(/C=C/c2ccc3ccc(Cl)cc3n2)c1 [MONTELUKAST]
2 | – | – | – | – | – | – | – | – | – | – | – | 0.7 | – | O=C(O)c1ccc(NC(=O)[C@H](CC2CCCC2)n2cnc(C(F)(F)F)c2)nc1 [PF-04991532]
3 | – | 6 mL/min/kg | – | 0.0133 | 0.59 mL/min/kg | 1.8 mL/min/kg | 40 mL/min/kg | 0.00164 | – | 6 | – | 2.3 | 2.9 | Nc1[nH]ncc1-c1cc(Cl)ccc1Oc1cc(F)c(S(=O)(=O)Nc2cscn2)cc1Cl [PF-05089771]
4 | – | 271 mL/min/kg | – | – | 3.2 mL/min/kg | – | – | – | – | – | – | 1.1 | – | CCN1CC(n2nccc2-c2cc(Cl)ccc2Oc2ccc(S(=O)(=O)Nc3cscn3)cc2C#N)C1 [PF-05150122]
5 | – | – | 0.8 ×10⁻⁶ cm/s | – | 1.3 mL/min/kg | – | – | – | – | 4.1 | – | 0.8 | – | O=S(=O)(Nc1nncs1)c1cc(Cl)c(Oc2ccc(C(F)(F)F)cc2-c2ccnnc2)cc1F [PF-05186462]
6 | 0.0124 | – | 19 ×10⁻⁶ cm/s | – | 7.4 mL/min/kg | 10.7 mL/min/kg | 98 mL/min/kg | 0.0124 | 0.851 | 4.4 | 0.679 | 2.3 | 6 | CCOc1cc(CC(=O)N[C@@H](CC(C)C)c2ccccc2N2CCCCC2)ccc1C(=O)O [REPAGLINIDE]
7 | 0.00273 | – | – | – | 0.03 mL/min/kg | 0.135 mL/min/kg | 4.7 mL/min/kg | 0.00151 | 0.699 | 3.4 | 0.687 | -0.1 | – | CCO[C@@H](Cc1ccc(OCCc2ccc(OS(C)(=O)=O)cc2)cc1)C(=O)O [TESAGLITAZAR]

The next lines start with the molecule.

Row | SMILES | fraction unbound (in vitro [1]) | CLH [2] | Papp (in vitro [3]) | fraction unbound (in vitro [4]) | CLH [5] | CLH [6] | CLint scaled at 2 h, 1 µM (in vitro [7]) | fraction unbound (in vitro [8]) | blood plasma ratio (clinical) | pKa at 0.3 h (physchem [9]) | blood plasma ratio (in vivo) | logD (physchem [10]) | pKa at 0.3 h (physchem [11])
8 | CCCCC(=O)N(Cc1ccc(-c2ccccc2-c2nnn[nH]2)cc1)[C@H](C(=O)O)C(C)C | 0.00415 | 5.1 mL/min/kg | 0.32 ×10⁻⁶ cm/s | 0.00302 | 0.35 mL/min/kg | 8.4 mL/min/kg | 1.6 mL/min/kg | 0.0145 | – | – | – | – | –
9 | O=C(O)c1cccc(Cc2cc(Cl)ccc2OCc2ccc(Cl)cc2F)n1 | 0.0024 | – | 12 ×10⁻⁶ cm/s | – | 2 mL/min/kg | 19.5 mL/min/kg | 180 mL/min/kg | 0.00288 | 0.654 | 5.3 | 0.561 | – | –
10 | CCCCc1nc(C)c(CC(=S)N(C)C)c(=O)n1Cc1ccc(-c2ccccc2-c2nnn[nH]2)cc1 | 0.0288 | – | 1.2 ×10⁻⁶ cm/s | – | 9.6 mL/min/kg | 23 mL/min/kg | 17 mL/min/kg | 0.0177 | 0.726 | 4.3 | 0.588 | 0.9 | 2.7
11 | CN(C)C(=O)CCS[C@H](SCCC(=O)O)c1cccc(/C=C/c2ccc3ccc(Cl)cc3n2)c1 | 0.00142 | – | 8.5 ×10⁻⁶ cm/s | – | 0.91 mL/min/kg | 10.1 mL/min/kg | 61 mL/min/kg | 0.00116 | 0.655 | 4.4 | 0.581 | 1.5 | 3.8
12 | COCc1c(C(C)C)nc(C(C)C)c(/C=C/[C@@H](O)C[C@@H](O)CC(=O)O)c1-c1ccc(F)cc1 [CERIVASTATIN] | 0.0176 | 8.7 mL/min/kg | – | 0.0179 | 2.7 mL/min/kg | 19.7 mL/min/kg | 43 mL/min/kg | 0.0153 | – | 4.7 | – | – | 5.6
13 | CC(C)(C)OC(=O)N[C@H]1CCCCC/C=C\[C@@H]2C[C@@]2(C(=O)NS(=O)(=O)C2CC2)NC(=O)[C@@H]2C[C@@H](OC(=O)N3Cc4cccc(F)c4C3)CN2C1=O [DANOPREVIR] | 0.072 | – | 2.5 ×10⁻⁶ cm/s | – | 10.8 mL/min/kg | 26.3 mL/min/kg | – | 0.085 | 0.73 | – | 0.73 | – | –
14 | CCCCCN(CCCOC)C(=O)[C@@H](CCC(=O)O)NC(=O)c1ccc(Cl)c(Cl)c1 [DEXLOXIGLUMIDE] | 0.00969 | – | 4.6 ×10⁻⁶ cm/s | – | 3.3 mL/min/kg | 1.4 mL/min/kg | 26 mL/min/kg | 0.00771 | 0.563 | 4.2 | 0.596 | 1.5 | –
15 | O=C(O)Cc1ccccc1Nc1c(Cl)cccc1Cl [DICLOFENAC] | 0.00376 | 17.5 mL/min/kg | – | 0.00598 | 4.1 mL/min/kg | 10.8 mL/min/kg | 176 mL/min/kg | 0.0047 | – | – | – | – | –
16 | CC(C)(C)NC(=O)[C@H]1CC[C@H]2[C@@H]3CC=C4C=C(C(=O)O)CC[C@]4(C)[C@H]3CC[C@]12C [EPRISTERIDE] | 0.0138 | – | 20 ×10⁻⁶ cm/s | – | 0.33 mL/min/kg | 1.5 mL/min/kg | 23 mL/min/kg | 0.00917 | 0.55 | 4.6 | 0.55 | 3.4 | –
17 | CC(C)n1c(/C=C/C(O)CC(O)CC(=O)O)c(-c2ccc(F)cc2)c2ccccc21 (configuration not stated) [FLUVASTATIN] | 0.00922 | – | 11 ×10⁻⁶ cm/s | 0.009 | – | – | – | – | – | 4.4 | – | 1.4 | –
18 | COc1ccc2c(c1)C(=O)N(CCc1ccc(S(=O)(=O)NC(=O)NC3CCCCC3)cc1)C(=O)C2(C)C [GLIQUIDONE] | 0.0035 | – | 5.7 ×10⁻⁶ cm/s | – | 0.96 mL/min/kg | 3.5 mL/min/kg | – | 0.0015 | 0.62 | – | 0.62 | – | –
19 | COc1ccc(Cl)cc1C(=O)NCCc1ccc(S(=O)(=O)NC(=O)NC2CCCCC2)cc1 [GLYBURIDE] | 0.00217 | 1.2 mL/min/kg | 14 ×10⁻⁶ cm/s | 0.0013 | 1.2 mL/min/kg | 5.8 mL/min/kg | 69 mL/min/kg | 0.00179 | – | – | – | – | –
20 | CC(C)Cc1ccc(C(C)C(=O)O)cc1 (configuration not stated) [IBUPROFEN] | – | – | 33 ×10⁻⁶ cm/s | – | – | – | – | – | – | – | – | 1.1 | –
21 | CCCCC1=NC2(CCCC2)C(=O)N1Cc1ccc(-c2ccccc2-c2nnn[nH]2)cc1 [IRBESARTAN] | 0.0155 | – | 8.6 ×10⁻⁶ cm/s | – | 2.1 mL/min/kg | 12.1 mL/min/kg | – | 0.0126 | 0.603 | 3.5 | 0.55 | 1.3 | 4.6

Reference: ChEMBL document CHEMBL4699523, “Predicting the Human Hepatic Clearance of Acidic and Zwitterionic Drugs” (J Med Chem, 2020)
